Legend:
forced swim mice = assay: Forced swim test in mice; format: in vivo, ICR mice; conditions: for Immobility time: last 4 min of 6 min
Description: Mail ICR mice (SPF grade) weighing 18-22 g were placed in a glass jar (diameter 10 cm, and height 20 cm) with water 10 cm in depth and a temperature of 25° C., observed for 6 min, and the accumulated immobility time of mice (i.e., the time that the animal has no motion or a slight motion in its hind limbs, but maintains body floated without motion) during the last 4 min was recorded. The mice were administrated with the compound to be tested and Duloxetine as the positive control drug via intraperitoneal injection at 30 min before the test or via intragastric administration at 60 min before the test.
In the forced swim model of mice, the antidepressant effect was evaluated to by observing the immobility time of the forced swim mice, and the shorter the immobility time, the stronger the antidepressant effect.

tail suspended mice [1] = assay: Tail suspension test in mice; format: in vivo, Male ICR mice; conditions: 30 min before test, last 4 min of 6 min
Excerpt: Male ICR mice (SPF grade) weighing 18-22 g each was suspended by […] separately at 1 cm from the end of the tail with a clamp attached to a rope at the center of top plate of a 25×25×25 cm tail suspension box, and the head is away from the box bottom by 4-5 cm. […] The results of antidepressant effects of the target compounds administrated via intraperitoneal injection as determined by the tail suspension test in mice are given in Table 1. In the tail-suspended model of mice, the antidepressant effect was evaluated by observing the immobility time of the tail-suspended mice, and the shorter the immobility time, the stronger the antidepressant effect.

tail suspended mice [2] = assay: Tail suspension test in mice; format: in vivo, Male ICR mice; conditions: for Immobility time: last 4 min of 6 min
[3] = 2.5 mg/kg i.p., 30 min before test
[4] = 5 mg/kg i.p., 30 min before test
[5] = 10 mg/kg i.p., 30 min before test
[6] = 20 mg/kg i.p., 30 min before test
[7] = 5 mg/kg i.g., 60 min before test
[8] = 10 mg/kg i.g., 60 min before test
[9] = 20 mg/kg i.g., 60 min before test

| Compound | melting point [°C] | Immobility time (forced swim mice; [3]) [s] | Immobility time (forced swim mice; [4]) [s] | Immobility time (forced swim mice; [5]) [s] | Immobility time (forced swim mice; [6]) [s] | Immobility time (tail suspended mice [1]; 2.5 mg/kg i.p.) [s] | Immobility time (tail suspended mice [1]; 5 mg/kg i.p.) [s] | Immobility time (tail suspended mice [1]; 10 mg/kg i.p.) [s] | Immobility time (tail suspended mice [1]; 20 mg/kg i.p.) [s] | other results |
| --- | --- | --- | --- | --- | --- | --- | --- | --- | --- | --- |
| CN(C)CCC(Oc1cccc2c1OCCO2)c1ccco1.O=C(O)C(=O)O (stereo not shown) | 101 to 103 | – | – | – | – | – | – | – | – | – |
| O=C(O)C(=O)O.c1csc(C(CCN2CCCC2)Oc2cccc3c2OCO3)c1 (stereo not shown) | 105 to 108 | – | – | – | – | – | – | – | – | – |
| O=C(O)C(=O)O.c1csc(C(CCN2CCCCC2)Oc2cccc3c2OCO3)c1 (stereo not shown) | 118 to 120 | – | – | – | – | – | – | – | – | – |
| CN(C)CCC(Oc1cccc2c1OCCO2)c1cccs1.O=C(O)C(=O)O (stereo not shown) | 89 to 92 | – | – | – | – | – | – | – | – | – |
| CNCCC(Oc1cccc2c1OCCO2)c1cccs1.O=C(O)C(=O)O (stereo not shown) | 128 to 131 | – | – | – | – | – | – | – | – | – |
| CNCC[C@H](Oc1cccc2ccccc12)c1cccs1 [Duloxetine, reference compound] | – | – | – | – | 96.7 to 135.4 | – | – | – | – | Immobility time (forced swim mice; 40 mg/kg i.g., 60 min before test): 60.5 ± 44.1 s; Immobility time (tail suspended mice [2]; [8]): 81.0 ± 44.7 s; Immobility time (tail suspended mice [2]; [5]): 35.9 to 49.2 s |

Continued, in another order:

| melting point [°C] | Compound | Immobility time (forced swim mice; [3]) [s] | Immobility time (forced swim mice; [4]) [s] | Immobility time (forced swim mice; [5]) [s] | Immobility time (forced swim mice; [6]) [s] | Immobility time (tail suspended mice [1]; 2.5 mg/kg i.p.) [s] | Immobility time (tail suspended mice [1]; 5 mg/kg i.p.) [s] | Immobility time (tail suspended mice [1]; 10 mg/kg i.p.) [s] | Immobility time (tail suspended mice [1]; 20 mg/kg i.p.) [s] | other results |
| --- | --- | --- | --- | --- | --- | --- | --- | --- | --- | --- |
| 85 to 88 | CN(C)CCC(Oc1cccc2c1OCO2)c1cccs1.O=C(O)C(=O)O (stereo not shown) [Compound I1, N,N-dimethyl-3-[(benzo[1,3]dioxolan-4-yl)-oxy]-3-(thiophen-2-yl)-propylamine.oxalate] | 148.7 ± 40.3 | 86.7 ± 44.7 | 54.6 ± 44.0 | 18.6 ± 15.7 | 38.2 ± 32.5 | 20.2 ± 17.1 | 6.2 ± 7.4 | 2.0 ± 6.3 | – |
| 120 to 123 | CNCCC(Oc1cccc2c1OCO2)c1cccs1.O=C(O)C(=O)O (stereo not shown) [Compound I2] | 113.6 ± 47.4 | 119.4 ± 47.0 | 86.1 ± 36.5 | 43.1 ± 37.1 | 35.0 ± 30.0 | 20.8 ± 32.1 | 1.9 ± 4.0 | 2.5 ± 4.1 | Immobility time (forced swim mice; [7]): 104.1 ± 39.7 s; Immobility time (forced swim mice; [8]): 83.7 ± 34.2 s; Immobility time (forced swim mice; [9]): 60.1 ± 33.8 s; antidepressant effect compared with Duloxetine (in words) (forced swim mice; i.g., I2 20 mg/kg vs Duloxetine 40 mg/kg): comparable to that of Duloxetine at the dose of 40 mg/kg; effect on immobility time (in words) (forced swim mice; intragastric administration, Table 4): significantly shorten the immobility time; Immobility time (tail suspended mice [2]; [7]): 66.1 ± 44.9 s; Immobility time (tail suspended mice [2]; [8]): 51.8 ± 36.0 s; Immobility time (tail suspended mice [2]; [9]): 22.0 ± 16.9 s; effect compared with duloxetine (in words) (tail suspended mice [2]; i.g., I2 5 mg/kg vs duloxetine 10 mg/kg): remarkably greater than that of duloxetine at the dose of 10 mg/kg; effect on immobility time (in words) (tail suspended mice [2]; intragastric administration, Table 2): significantly shorten the immobility time |
| 97 to 101 | CN(C)CCC(Oc1cccc2c1OCO2)c1ccco1.O=C(O)C(=O)O (stereo not shown) [Compound I6, N,N-dimethyl-[3-(benzo[1,3]dioxolan-4-yl-oxy)-3-(furan-2-yl)]-propylamine.oxalate] | 92.4 ± 39.2 | 96.5 ± 43.3 | 108.2 ± 46.7 | 61.2 ± 44.5 | 51.2 ± 34.3 | 53.9 ± 46.9 | 22.5 ± 28.1 | 11.9 ± 16.8 | – |
| 130 to 133 | CNCCC(Oc1cccc2c1OCO2)c1ccco1.O=C(O)C(=O)O (stereo not shown) [Compound I7, N-methyl-[3-(benzo[1,3]dioxolan-4-yl-oxy)-3-(furan-2-yl)]propylamine.oxalate] | 94.3 ± 55.3 | 78.9 ± 43.1 | 70.9 ± 33.0 | 28.4 ± 35.8 | 30.7 ± 44.1 | 21.9 ± 21.5 | 33.3 ± 31.2 | 0.3 ± 0.95 | – |
